Laboratory results published in ChEMBL document CHEMBL1201862, “PubChem BioAssay data set” (2004).
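Dose response: 5 concentrations. Exposure: 48 h. Format: 96-well plates. Endpoint: linear interpolation; highest concentration if not reached. Abbreviation: GI50, concentration required for 50% inhibition of growth.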 Activity calls are given as the source filed them. Rule as the data show it: active = GI50 up to about 1.1 µM and inactive = higher.

Columns and labels:
Test in all cases: NCI tumour cell line growth inhibition, 48 h
[1] = tested on: 786-0
[2] = tested on: A549
[3] = tested on: ACHN
[4] = tested on: CAKI-1
[5] = tested on: CCRF-CEM
[6] = tested on: COLO 205
[7] = tested on: DLD-1
[8] = tested on: DMS-114
[9] = tested on: DMS-273
[10] = tested on: EKVX
[11] = tested on: HCC 2998
[12] = tested on: HCT-15
[13] = tested on: HL-60
[14] = tested on: HOP-18
[15] = tested on: HOP-62
[16] = tested on: HOP-92
[17] = tested on: HT-29
[18] = tested on: IGROV-1
[19] = tested on: K562
[20] = tested on: KM-20L2
[21] = tested on: KM12
[22] = tested on: LOX IMVI
[23] = tested on: LXFL 529
[24] = tested on: M14
[25] = tested on: M19-MEL
[26] = tested on: MOLT-4
[27] = tested on: Malme-3M
[28] = tested on: NCI-H23
[29] = tested on: NCI-H460
[30] = tested on: NCI-H522
[31] = tested on: OVCAR-3
[32] = tested on: OVCAR-4
[33] = tested on: OVCAR-5
[34] = tested on: OVCAR-8
[35] = tested on: RPMI-8226
[36] = tested on: RXF 393
[37] = tested on: RXF 631
[38] = tested on: SF-268
[39] = tested on: SF-295
[40] = tested on: SF-539
[41] = tested on: SK-MEL-28
[42] = tested on: SK-MEL-2
[43] = tested on: SK-MEL-5
[44] = tested on: SK-OV-3
[45] = tested on: SN12C
[46] = tested on: SNB-19
[47] = tested on: SNB-75
[48] = tested on: SW-620
[49] = tested on: TK-10
[50] = tested on: U-251
[51] = tested on: UACC-257
[52] = tested on: UACC-62
[53] = tested on: UO-31
[54] = tested on: A498
[55] = tested on: HCT-116
[56] = tested on: NCI-H226
[57] = tested on: SNB-78
[58] = tested on: SR

SMILES: CCOC(=O)C1C(=S)NC(=O)C1C#N (configuration not stated)
- GI50 [1]: > 100 µM (inactive)
- GI50 [2]: > 100 µM (inactive)
- GI50 [3]: > 100 µM (inactive)
- GI50 [4]: > 100 µM (inactive)
- GI50 [5]: > 100 µM (inactive)
- GI50 [6]: > 100 µM (inactive)
- GI50 [7]: > 100 µM (inactive)
- GI50 [8]: > 100 µM (inactive)
- GI50 [9]: > 100 µM (inactive)
- GI50 [10]: > 100 µM (inactive)
- GI50 [11]: > 100 µM (inactive)
- GI50 [12]: > 100 µM
- GI50 [13]: > 100 µM (inactive)
- GI50 [14]: > 100 µM (inactive)
- GI50 [15]: > 100 µM (inactive)
- GI50 [16]: > 100 µM (inactive)
- GI50 [17]: > 100 µM (inactive)
- GI50 [18]: > 100 µM (inactive)
- GI50 [19]: > 100 µM (inactive)
- GI50 [20]: > 100 µM (inactive)
- GI50 [21]: > 100 µM (inactive)
- GI50 [22]: > 100 µM (inactive)
- GI50 [23]: > 100 µM (inactive)
- GI50 [24]: > 100 µM (inactive)
- GI50 [25]: > 100 µM (inactive)
- GI50 [26]: > 100 µM (inactive)
- GI50 [27]: > 100 µM (inactive)
- GI50 [28]: > 100 µM (inactive)
- GI50 [29]: > 100 µM (inactive)
- GI50 [30]: > 100 µM (inactive)
- GI50 [31]: > 100 µM (inactive)
- GI50 [32]: > 100 µM (inactive)
- GI50 [33]: > 100 µM (inactive)
- GI50 [34]: > 100 µM (inactive)
- GI50 [35]: > 100 µM (inactive)
- GI50 [36]: > 100 µM (inactive)
- GI50 [37]: > 100 µM (inactive)
- GI50 [38]: > 100 µM (inactive)
- GI50 [39]: > 100 µM (inactive)
- GI50 [40]: > 100 µM (inactive)
- GI50 [41]: > 100 µM (inactive)
- GI50 [42]: > 100 µM (inactive)
- GI50 [43]: > 100 µM (inactive)
- GI50 [44]: > 100 µM (inactive)
- GI50 [45]: > 100 µM (inactive)
- GI50 [46]: > 100 µM (inactive)
- GI50 [47]: > 100 µM (inactive)
- GI50 [48]: > 100 µM (inactive)
- GI50 [49]: > 100 µM (inactive)
- GI50 [50]: > 100 µM (inactive)
- GI50 [51]: > 100 µM (inactive)
- GI50 [52]: > 100 µM (inactive)
- GI50 [53]: > 100 µM (inactive)

SMILES: O=C(Nc1c(O)[nH]c(=S)[nH]c1=O)c1ccccn1
- GI50 [1]: > 100 µM (inactive)
- GI50 [54]: > 100 µM (inactive)
- GI50 [2]: > 100 µM (inactive)
- GI50 [3]: > 100 µM (inactive)
- GI50 [4]: > 100 µM (inactive)
- GI50 [5]: > 100 µM (inactive)
- GI50 [6]: > 100 µM (inactive)
- GI50 [7]: > 100 µM (inactive)
- GI50 [8]: > 100 µM (inactive)
- GI50 [55]: > 100 µM (inactive)
- GI50 [12]: > 100 µM
- GI50 [13]: > 100 µM (inactive)
- GI50 [14]: > 100 µM (inactive)
- GI50 [15]: > 100 µM (inactive)
- GI50 [16]: 39.1 µM (inactive)
- GI50 [17]: > 100 µM (inactive)
- GI50 [18]: > 100 µM (inactive)
- GI50 [19]: > 100 µM (inactive)
- GI50 [20]: > 100 µM (inactive)
- GI50 [21]: > 100 µM (inactive)
- GI50 [22]: > 100 µM (inactive)
- GI50 [23]: > 100 µM (inactive)
- GI50 [24]: > 100 µM (inactive)
- GI50 [25]: > 100 µM (inactive)
- GI50 [26]: > 100 µM (inactive)
- GI50 [27]: > 100 µM (inactive)
- GI50 [56]: > 100 µM (inactive)
- GI50 [28]: > 100 µM (inactive)
- GI50 [29]: > 100 µM (inactive)
- GI50 [30]: > 100 µM (inactive)
- GI50 [31]: > 100 µM (inactive)
- GI50 [32]: > 100 µM (inactive)
- GI50 [33]: > 100 µM (inactive)
- GI50 [34]: > 100 µM (inactive)
- GI50 [35]: > 100 µM (inactive)
- GI50 [37]: > 100 µM (inactive)
- GI50 [38]: > 100 µM (inactive)
- GI50 [39]: > 100 µM (inactive)
- GI50 [40]: > 100 µM (inactive)
- GI50 [41]: > 100 µM (inactive)
- GI50 [42]: > 100 µM (inactive)
- GI50 [43]: > 100 µM (inactive)
- GI50 [44]: > 100 µM (inactive)
- GI50 [45]: > 100 µM (inactive)
- GI50 [46]: > 100 µM (inactive)
- GI50 [47]: > 100 µM (inactive)
- GI50 [57]: > 100 µM (inactive)
- GI50 [58]: > 100 µM (inactive)
- GI50 [48]: > 100 µM (inactive)
- GI50 [49]: > 100 µM (inactive)
- GI50 [50]: > 100 µM (inactive)
- GI50 [51]: > 100 µM (inactive)
- GI50 [52]: > 100 µM (inactive)
- GI50 [53]: > 100 µM (inactive)
